# Target: T1, human TGR5 (Homo sapiens, UniProt Q8TDU6)
# T1 construct: expressed in transfected cells; host or cells: HEK293
# T1 sequence (Q8TDU6 1-330): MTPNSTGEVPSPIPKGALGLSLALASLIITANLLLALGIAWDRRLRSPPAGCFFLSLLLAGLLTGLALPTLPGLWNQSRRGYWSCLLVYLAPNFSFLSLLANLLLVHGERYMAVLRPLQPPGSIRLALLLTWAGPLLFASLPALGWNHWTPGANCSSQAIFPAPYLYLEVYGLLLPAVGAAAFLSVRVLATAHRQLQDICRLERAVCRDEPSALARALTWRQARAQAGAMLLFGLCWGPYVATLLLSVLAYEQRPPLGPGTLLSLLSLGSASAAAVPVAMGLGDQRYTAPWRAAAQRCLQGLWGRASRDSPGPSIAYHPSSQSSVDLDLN
# Experiment: Cell-based TGR5 assay (cAMP generation, HTRF)
# Conditions: HEK293 cells stably transfected with human TGR5; cAMP by HTRF; 30 minutes at 37° C.; read-out: pEC50 Human TGR5 (converted)
# Method in brief: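 Read-out was HTRF detection of cAMP, converted to concentration via a standard curve and fitted (3-parameter logistic) for pEC50 and maximal response. Agonist stimulation used HEK293 cells stably transfected with human TGR5, incubated 30 min at 37° C in IBMX-containing buffer at 0.05 nM to 10 μM compound.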
row,Compound,EC50
1,"COc1ccc2c(n1)CCN(S(=O)(=O)c1ccc(Cl)c(COC3(c4cnccc4-c4ccccc4OC4CC4)CC3)c1)C2 [Compound I-733, 6-[[4-chloro-3-([1-[4-(2-cyclopropoxyphenyl)pyridin-3-yl]cyclopropoxy]methyl)benzene]sulfonyl]-2-methoxy-5,6,7,8-tetrahydro-1,6-naphthyridine]",< 0.1 µM
2,"CC(C)N(CCCCNC(=O)NC[C@H](O)[C@@H](O)[C@H](O)[C@H](O)CO)S(=O)(=O)c1ccc(Cl)c(COC2(c3cnccc3-c3ccccc3OC3CC3)CCC2)c1 [Compound I-747, 4-chloro-3-((1-(4-(2-cyclopropoxyphenyl)pyridin-3-yl)cyclobutoxy)methyl)-N-isopropyl-N-(4-(3-((2S,3R,4R,5R)-2,3,4,5,6-pentahydroxyhexyl)ureido)butyl)benzenesulfonamide]",< 0.1 µM
3,"O=C(NCCOCC[S+]([O-])c1ccc(Cl)c(COC2(c3cnccc3-c3ccccc3OC3CC3)CC2)c1)N[C@@H](CO)[C@@H](O)[C@H](O)[C@H](O)CO (stereo partly drawn) [Compound I-644, 1-(2-{2-[4-chloro-3-({1-[4-(2-cyclopropoxyphenyl)pyridin-3-yl]cyclopropoxy}methyl)benzenesulfinyl]ethoxy}ethyl)-3-[(2S,3R,4S,5R)-1,3,4,5,6-pentahydroxyhexan-2-yl]urea]",< 0.1 µM
4,"CC(CCCCCNC(=O)NC[C@H](O)[C@@H](O)[C@H](O)[C@H](O)CO)c1ccc(Cl)c(CNC2(c3cnccc3-c3ccccc3OC3CC3)CC2)c1 (stereo partly drawn) [Compound I-268, 1-(6-{4-chloro-3-[({1-[4-(2-cyclopropoxyphenyl)pyridin-3-yl]cyclopropyl}amino)methyl]phenyl}heptyl)-3-[(2S,3R,4R,5R)-2,3,4,5,6-pentahydroxyhexyl]urea]",< 0.1 µM
5,"CN(CCCCCSc1ccc(Cl)c(COC2(c3cnccc3-c3ccccc3OC3CC3)CC2)c1)C(=O)[C@@H](O)[C@@H](O)[C@H](O)[C@@H](O)CO [Compound I-509, (2S,3S,4R,5S)-N-(5-{[4-chloro-3-({1-[4-(2-cyclopropoxyphenyl)pyridin-3-yl]cyclopropoxy}methyl)phenyl]sulfanyl}pentyl)-2,3,4,5,6-pentahydroxy-N-methylhexanamide]",< 0.1 µM
6,"O=C(NCCCCSc1ccc(Cl)c(COC2(c3cnccc3-c3ccccc3OC3CC3)CC2)c1)N[C@@H](CO)[C@@H](O)[C@H](O)[C@H](O)CO [Compound I-628, 1-(4-{[4-chloro-3-({1-[4-(2-cyclopropoxyphenyl)pyridin-3-yl]cyclopropoxy}methyl)phenyl]sulfanyl}butyl)-3-[(2S,3R,4S,5R)-1,3,4,5,6-pentahydroxyhexan-2-yl]urea]",< 0.1 µM
7,"CCN(C[C@H](O)[C@@H](O)[C@H](O)[C@H](O)CO)C(=O)CCCC(C)c1ccc(C)c(COC2(c3cnccc3-c3ccccc3OC3CC3)CC2)c1 (stereo partly drawn) [Compound I-375, 5-[3-({1-[4-(2-cyclopropoxyphenyl)pyridin-3-yl]cyclopropoxy}methyl)-4-methylphenyl]-N-ethyl-N-[(2S,3R,4R,5R)-2,3,4,5,6-pentahydroxyhexyl]hexanamide]",< 0.1 µM

# The remaining lines, values ahead:
row,EC50,Compound
1,0.126 to 1 µM,"CC(=O)NCCCN(CCCSc1ccc(Cl)c(CNC2(c3cnccc3-c3ccccc3OC3CC3)CC2)c1)C(=O)[C@@H](O)[C@@H](O)[C@H](O)[C@@H](O)CO [Compound I-589, (2S,3S,4R,5S)-N-[3-({4-chloro-3-[({1-[4-(2-cyclopropoxyphenyl)pyridin-3-yl]cyclopropyl}amino)methyl]phenyl}sulfanyl)propyl]-N-(3-acetamidopropyl)-2,3,4,5,6-pentahydroxyhexanamide]"
2,< 0.1 µM,"CC(CCCN(CCCCNS(C)(=O)=O)C(=O)[C@@H](O)[C@@H](O)[C@H](O)[C@@H](O)CO)c1ccc(Cl)c(CNC2(c3cnccc3-c3ccccc3OC3CC3)CC2)c1 (stereo partly drawn) [Compound I-297, (2S,3S,4R,5S)-N-(4-{4-chloro-3-[({1-[4-(2-cyclopropoxyphenyl)pyridin-3-yl]cyclopropyl}amino)methyl]phenyl}pentyl)-2,3,4,5,6-pentahydroxy-N-(4-methanesulfonamidobutyl) hexanamide]"
3,0.126 to 1 µM,"O=C(NC[C@H](O)[C@@H](O)[C@H](O)[C@H](O)CO)c1ccc(CCc2ccc(Cl)c(COC3(c4cnccc4-c4ccccc4OC4CC4)CC3)c2)cc1 [Compound I-724, 4-(4-Chloro-3-((1-(4-(2-cyclopropoxyphenyl)pyridin-3-yl)cyclopropoxy)methyl)phenethyl)-N-((2S,3R,4R,5R)-2,3,4,5,6-pentahydroxyhexyl)benzamide]"
4,< 0.1 µM,"O=C([C@@H](O)[C@@H](O)[C@H](O)[C@@H](O)CO)N(CCCSc1ccc(Cl)c(COC2(c3cnccc3-c3ccccc3OC3CC3)CC2)c1)CCOCCO [Compound I-518, (2S,3S,4R,5S)-N-(3-{[4-chloro-3-({1-[4-(2-cyclopropoxyphenyl)pyridin-3-yl]cyclopropoxy}methyl)phenyl]sulfanyl}propyl)-2,3,4,5,6-pentahydroxy-N-[2-(2-hydroxyethoxy)ethyl]hexanamide]"
5,< 0.1 µM,"C[C@@H](O)CN(CCCCc1cc(Cl)c(COC2(c3cnccc3-c3ccccc3OC3CC3)CC2)cc1Cl)C(=O)[C@@H](O)[C@@H](O)[C@H](O)[C@@H](O)CO [Compound I-214, (2S,3S,4R,5S)-N-{4-[2,5-dichloro-4-({1-[4-(2-cyclopropoxyphenyl)pyridin-3-yl]cyclopropoxy}methyl)phenyl]butyl}-2,3,4,5,6-pentahydroxy-N-[(2R)-2-hydroxypropyl]hexanamide]"
6,< 0.1 µM,"CC(CCCC(=O)N(CCS(C)(=O)=O)C[C@@H](O)[C@H](O)[C@@H](O)[C@@H](O)CO)c1ccc(Cl)c(CNC2(c3cnccc3-c3ccccc3OC3CC3)CC2)c1 (stereo partly drawn) [Compound I-346, 5-{4-chloro-3-[({1-[4-(2-cyclopropoxyphenyl)pyridin-3-yl]cyclopropyl}amino)methyl]phenyl}-N-(2-methanesulfonylethyl)-N-[(2R,3S,4S,5S)-2,3,4,5,6-pentahydroxyhexyl]hexanamide]"
7,< 0.1 µM,"O=C([C@@H](O)[C@@H](O)[C@H](O)[C@@H](O)CO)N(CCCCSc1ccc(Cl)c(COC2(c3cnccc3-c3ccccc3OC3CC3)CC2)c1)CCOCCO [Compound I-512, (2S,3S,4R,5S)-N-(4-{[4-chloro-3-({1-[4-(2-cyclopropoxyphenyl)pyridin-3-yl]cyclopropoxy}methyl)phenyl]sulfanyl}butyl)-2,3,4,5,6-pentahydroxy-N-[2-(2-hydroxyethoxy)ethyl]hexanamide]"
8,0.126 to 1 µM,"O=C(CCCSc1ccc(Cl)c(COC2(c3cnccc3-c3ccccc3OC3CC3)CC2)c1)N(CCCCCO)C[C@H](O)[C@@H](O)[C@H](O)[C@H](O)CO [Compound I-684, 4-f{[4-chloro-3-({1-[4-(2-cyclopropoxyphenyl)pyridin-3-yl]cyclopropoxy}methyl)phenyl]sulfanyl}-N-(5-hydroxypentyl)-N-[(2S,3R,4R,5R)-2,3,4,5,6-pentahydroxyhexyl]butanamide]"
9,0.126 to 1 µM,"Cc1ccc(C(C)CCCC(=O)N(CCC(N)=O)C[C@H](O)[C@@H](O)[C@H](O)[C@H](O)CO)cc1CNC1(c2cnccc2-c2ccccc2OC2CC2)CC1 (stereo partly drawn) [Compound I-359, N-(2-carbamoylethyl)-5-{3-[({1-[4-(2-cyclopropoxyphenyl)pyridin-3-yl]cyclopropyl}amino)methyl]-4-methylphenyl}-N-[(2S,3R,4R,5R)-2,3,4,5,6-pentahydroxyhexyl]hexanamide]"
